#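 How tested: cells in 96-well plates exposed to compound for 48 hours at five concentrations. The concentration for full growth arrest is given as TGI.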
# Columns and labels:
# Assay in all cases: NCI-60 cell line screen, 48 h
# 786-0 renal = tested on: 786-0 renal
# A498 renal = tested on: A498 renal
# A549 NSCLC = tested on: A549 NSCLC
# ACHN renal = tested on: ACHN renal
# BT-549 breast = tested on: BT-549 breast
# CAKI-1 renal = tested on: CAKI-1 renal
# CCRF-CEM leukemia = tested on: CCRF-CEM leukemia
# COLO 205 colon = tested on: COLO 205 colon
# DMS 114 small cell lung = tested on: DMS 114 small cell lung
# DMS 273 small cell lung = tested on: DMS 273 small cell lung
# DU-145 prostate = tested on: DU-145 prostate
# EKVX NSCLC = tested on: EKVX NSCLC
# HCC-2998 colon = tested on: HCC-2998 colon
# HCT-116 colon = tested on: HCT-116 colon
# HCT-15 colon = tested on: HCT-15 colon
# HL-60(TB) leukemia = tested on: HL-60(TB) leukemia
# HOP-62 NSCLC = tested on: HOP-62 NSCLC
# HOP-92 NSCLC = tested on: HOP-92 NSCLC
# HS 578T breast = tested on: HS 578T breast
# HT29 colon = tested on: HT29 colon
# IGROV1 ovarian = tested on: IGROV1 ovarian
# K-562 leukemia = tested on: K-562 leukemia
# KM12 colon = tested on: KM12 colon
# KM20L2 colon = tested on: KM20L2 colon
# LOX IMVI melanoma = tested on: LOX IMVI melanoma
# LXFL 529 NSCLC = tested on: LXFL 529 NSCLC
# M14 melanoma = tested on: M14 melanoma
# M19-MEL melanoma = tested on: M19-MEL melanoma
# MALME-3M melanoma = tested on: MALME-3M melanoma
# MCF7 breast = tested on: MCF7 breast
# MDA-MB-231 breast = tested on: MDA-MB-231 breast
# MDA-MB-435 = tested on: MDA-MB-435
# MDA-N = tested on: MDA-N
# MOLT-4 leukemia = tested on: MOLT-4 leukemia
# NCI-H226 lung = tested on: NCI-H226 lung
# NCI-H23 lung = tested on: NCI-H23 lung
# NCI-H460 lung = tested on: NCI-H460 lung
# NCI-H522 lung = tested on: NCI-H522 lung
# NCI/ADR-RES ovarian = tested on: NCI/ADR-RES ovarian
# OVCAR-3 ovarian = tested on: OVCAR-3 ovarian
# OVCAR-4 ovarian = tested on: OVCAR-4 ovarian
# OVCAR-5 ovarian = tested on: OVCAR-5 ovarian
# OVCAR-8 ovarian = tested on: OVCAR-8 ovarian
# PC-3 prostate = tested on: PC-3 prostate
# RPMI-8226 leukemia = tested on: RPMI-8226 leukemia
# RXF 393 renal = tested on: RXF 393 renal
# SF-268 CNS = tested on: SF-268 CNS
# SF-295 CNS = tested on: SF-295 CNS
# SF-539 CNS = tested on: SF-539 CNS
# SK-MEL-2 melanoma = tested on: SK-MEL-2 melanoma
# SK-MEL-28 melanoma = tested on: SK-MEL-28 melanoma
# SK-MEL-5 melanoma = tested on: SK-MEL-5 melanoma
# SK-OV-3 ovarian = tested on: SK-OV-3 ovarian
# SN12C renal = tested on: SN12C renal
# SNB-19 CNS = tested on: SNB-19 CNS
# SNB-75 CNS = tested on: SNB-75 CNS
# SNB-78 CNS = tested on: SNB-78 CNS
# SR leukemia = tested on: SR leukemia
# SW-620 colon = tested on: SW-620 colon
# T-47D breast = tested on: T-47D breast
# TK-10 renal = tested on: TK-10 renal
# U251 CNS = tested on: U251 CNS
# UACC-257 melanoma = tested on: UACC-257 melanoma
# UACC-62 melanoma = tested on: UACC-62 melanoma
# UO-31 renal = tested on: UO-31 renal
# XF 498 CNS = tested on: XF 498 CNS
# DLD-1 colon = tested on: DLD-1 colon
smiles,measurement,setting,value
Cc1cc(CS(=O)(=O)/C=C/c2ccccc2[N+](=O)[O-])c(CS(=O)(=O)/C=C/c2ccccc2[N+](=O)[O-])cc1C,TGI,786-0 renal,34.9 µM
same,TGI,A498 renal,70.9 µM
same,TGI,A549 NSCLC,> 100 µM
same,TGI,ACHN renal,> 100 µM
same,TGI,BT-549 breast,44.4 µM
same,TGI,CAKI-1 renal,> 100 µM
same,TGI,CCRF-CEM leukemia,> 46.4 µM
same,TGI,COLO 205 colon,> 100 µM
same,TGI,DMS 114 small cell lung,> 100 µM
same,TGI,DMS 273 small cell lung,> 100 µM
same,TGI,DU-145 prostate,> 100 µM
same,TGI,EKVX NSCLC,> 100 µM
same,TGI,HCC-2998 colon,> 100 µM
same,TGI,HCT-116 colon,> 100 µM
same,TGI,HCT-15 colon,> 100 µM
same,TGI,HL-60(TB) leukemia,> 100 µM
same,TGI,HOP-62 NSCLC,49.4 µM
same,TGI,HOP-92 NSCLC,74.1 µM
same,TGI,HS 578T breast,> 62.5 µM
same,TGI,HT29 colon,> 100 µM
same,TGI,IGROV1 ovarian,> 100 µM
same,TGI,K-562 leukemia,> 100 µM
same,TGI,KM12 colon,> 100 µM
same,TGI,KM20L2 colon,> 100 µM
same,TGI,LOX IMVI melanoma,> 100 µM
same,TGI,LXFL 529 NSCLC,> 100 µM
same,TGI,M14 melanoma,> 100 µM
same,TGI,M19-MEL melanoma,> 100 µM
same,TGI,MALME-3M melanoma,> 100 µM
same,TGI,MCF7 breast,> 100 µM
same,TGI,MDA-MB-231 breast,> 51.2 µM
same,TGI,MDA-MB-435,> 100 µM
same,TGI,MDA-N,99.7 µM
same,TGI,MOLT-4 leukemia,> 100 µM
same,TGI,NCI-H226 lung,59.4 µM
same,TGI,NCI-H23 lung,> 51.7 µM
same,TGI,NCI-H460 lung,> 100 µM
same,TGI,NCI-H522 lung,> 100 µM
same,TGI,NCI/ADR-RES ovarian,> 100 µM
same,TGI,OVCAR-3 ovarian,> 100 µM
same,TGI,OVCAR-4 ovarian,32.3 µM
same,TGI,OVCAR-5 ovarian,> 100 µM
same,TGI,OVCAR-8 ovarian,> 100 µM
same,TGI,PC-3 prostate,> 100 µM
same,TGI,RPMI-8226 leukemia,> 86 µM
same,TGI,RXF 393 renal,41.2 µM
same,TGI,SF-268 CNS,> 100 µM
same,TGI,SF-295 CNS,63.2 µM
same,TGI,SF-539 CNS,35.9 µM
same,TGI,SK-MEL-2 melanoma,36.5 µM
same,TGI,SK-MEL-28 melanoma,> 100 µM
same,TGI,SK-MEL-5 melanoma,> 100 µM
same,TGI,SK-OV-3 ovarian,37.5 µM
same,TGI,SN12C renal,> 100 µM
same,TGI,SNB-19 CNS,> 83.1 µM
same,TGI,SNB-75 CNS,32 µM
same,TGI,SNB-78 CNS,66.2 µM
same,TGI,SR leukemia,> 100 µM
same,TGI,SW-620 colon,> 100 µM
same,TGI,T-47D breast,> 100 µM
same,TGI,TK-10 renal,> 81.8 µM
same,TGI,U251 CNS,71.3 µM
same,TGI,UACC-257 melanoma,> 100 µM
same,TGI,UACC-62 melanoma,> 100 µM
same,TGI,UO-31 renal,> 100 µM
same,TGI,XF 498 CNS,38.3 µM
CCOc1ccc(NC(=O)c2c(N/N=C/c3ccc(OC)cc3)nc(=O)[nH]c2C)cc1,TGI,786-0 renal,> 100 µM
same,TGI,A498 renal,39.4 µM
same,TGI,ACHN renal,> 100 µM
same,TGI,CAKI-1 renal,> 100 µM
same,TGI,CCRF-CEM leukemia,> 100 µM
same,TGI,COLO 205 colon,> 100 µM
same,TGI,DLD-1 colon,> 100 µM
same,TGI,DMS 273 small cell lung,> 100 µM
same,TGI,HCC-2998 colon,> 100 µM
same,TGI,HCT-116 colon,> 100 µM
same,TGI,HCT-15 colon,> 100 µM
same,TGI,HL-60(TB) leukemia,> 100 µM
same,TGI,HOP-62 NSCLC,> 100 µM
same,TGI,HOP-92 NSCLC,> 100 µM
same,TGI,IGROV1 ovarian,> 100 µM
same,TGI,K-562 leukemia,> 100 µM
same,TGI,LXFL 529 NSCLC,> 100 µM
same,TGI,M14 melanoma,> 100 µM
same,TGI,M19-MEL melanoma,> 100 µM
same,TGI,MALME-3M melanoma,> 100 µM
same,TGI,MOLT-4 leukemia,> 100 µM
same,TGI,NCI-H226 lung,> 100 µM
same,TGI,NCI-H23 lung,> 100 µM
same,TGI,NCI-H460 lung,> 100 µM
same,TGI,NCI-H522 lung,69.7 µM
same,TGI,OVCAR-4 ovarian,88.4 µM
same,TGI,RPMI-8226 leukemia,> 100 µM
same,TGI,SF-268 CNS,> 100 µM
same,TGI,SF-539 CNS,91 µM
same,TGI,SK-MEL-2 melanoma,> 100 µM
same,TGI,SK-MEL-28 melanoma,> 100 µM
same,TGI,SK-OV-3 ovarian,83.1 µM
same,TGI,SN12C renal,> 100 µM
same,TGI,SNB-75 CNS,96.5 µM
same,TGI,SNB-78 CNS,> 100 µM
same,TGI,SR leukemia,> 100 µM
same,TGI,UACC-62 melanoma,> 100 µM
same,TGI,UO-31 renal,> 100 µM
same,TGI,XF 498 CNS,> 100 µM

# Source: PubChem BioAssay (NCI)
